In brackets after ≈: the same amount, converted by molar mass.
Assays:
Assay type in all cases: functional
[1] = system: Escherichia coli; test: Antibacterial activity against Escherichia coli MTCC 1573 at 1000 ug/ml after 48 hr by cup-plate method; settings: MTCC 1573, 48 h, read-out: DIZ
[2] = system: Bacillus pumilus; test: Antibacterial activity against Bacillus pumilus MTCC 1456 at 100 ug/ml after 48 hr by cup-plate method; settings: MTCC 1456, 48 h, read-out: DIZ
[3] = system: Pseudomonas aeruginosa; test: Antibacterial activity against Pseudomonas aeruginosa MTCC 424 at 250 ug/ml after 48 hr by cup-plate method; settings: MTCC 424, 48 h, read-out: DIZ
[4] = system: Pseudomonas aeruginosa; test: Antibacterial activity against Pseudomonas aeruginosa MTCC 424 at 1250 ug/ml after 48 hr by cup-plate method; settings: MTCC 424, 48 h, read-out: DIZ
[5] = system: Escherichia coli; test: Antibacterial activity against Escherichia coli MTCC 1573 after 24 to 48 hr by tube dilution method
[6] = system: Pseudomonas fluorescens; test: Antibacterial activity against Pseudomonas fluorescens MTCC 2421 at 100 ug/ml after 48 hr by cup-plate method; settings: MTCC 2421, 48 h, read-out: DIZ
[7] = system: Bacillus subtilis; test: Antibacterial activity against Bacillus subtilis MTCC 441 at 750 ug/ml after 48 hr by cup-plate method; settings: MTCC 441, 48 h, read-out: DIZ
[8] = system: Escherichia coli; test: Antibacterial activity against Escherichia coli MTCC 1573 at 100 ug/ml after 48 hr by cup-plate method; settings: MTCC 1573, 48 h, read-out: DIZ
[9] = system: Pseudomonas aeruginosa; test: Antibacterial activity against Pseudomonas aeruginosa MTCC 424 at 100 ug/ml after 48 hr by cup-plate method; settings: MTCC 424, 48 h, read-out: DIZ
[10] = system: Micrococcus luteus; test: Antibacterial activity against Micrococcus luteus MTCC 1538 at 1000 ug/ml after 48 hr by cup-plate method; settings: MTCC 1538, 48 h, read-out: DIZ
[11] = system: Aspergillus niger; test: Antifungal activity against Aspergillus niger MTCC 2546 at 500 ug/ml after 48 hr by cup-plate method; settings: MTCC 2546, 48 h, read-out: DIZ
[12] = system: Escherichia coli; test: Antibacterial activity against Escherichia coli MTCC 1573 at 500 ug/ml after 48 hr by cup-plate method; settings: MTCC 1573, 48 h, read-out: DIZ
[13] = system: Aspergillus niger; test: Antifungal activity against Aspergillus niger MTCC 2546 at 250 ug/ml after 48 hr by cup-plate method; settings: MTCC 2546, 48 h, read-out: DIZ
[14] = system: Staphylococcus aureus; test: Antibacterial activity against Staphylococcus aureus MTCC 1430 after 24 to 48 hr by tube dilution method
[15] = system: Bacillus pumilus; test: Antibacterial activity against Bacillus pumilus MTCC 1456 after 24 to 48 hr by tube dilution method
[16] = system: Penicillium chrysogenum; test: Antifungal activity against Penicillium chrysogenum MTCC 161 after 24 to 48 hr by tube dilution method
[17] = system: Bacillus subtilis; test: Antibacterial activity against Bacillus subtilis MTCC 441 at 500 ug/ml after 48 hr by cup-plate method; settings: MTCC 441, 48 h, read-out: DIZ
[18] = system: Pseudomonas fluorescens; test: Antibacterial activity against Pseudomonas fluorescens MTCC 2421 at 500 ug/ml after 48 hr by cup-plate method; settings: MTCC 2421, 48 h, read-out: DIZ
[19] = system: Bacillus pumilus; test: Antibacterial activity against Bacillus pumilus MTCC 1456 at 500 ug/ml after 48 hr by cup-plate method; settings: MTCC 1456, 48 h, read-out: DIZ
[20] = system: Aspergillus niger; test: Antifungal activity against Aspergillus niger MTCC 2546 at 1000 ug/ml after 48 hr by cup-plate method; settings: MTCC 2546, 48 h, read-out: DIZ
[21] = system: Micrococcus luteus; test: Antibacterial activity against Micrococcus luteus MTCC 1538 at 1250 ug/ml after 48 hr by cup-plate method; settings: MTCC 1538, 48 h, read-out: DIZ
[22] = system: Staphylococcus aureus; test: Antibacterial activity against Staphylococcus aureus MTCC 1430 at 1250 ug/ml after 48 hr by cup-plate method; settings: MTCC 1430, 48 h, read-out: DIZ
[23] = system: Pseudomonas fluorescens; test: Antibacterial activity against Pseudomonas fluorescens MTCC 2421 at 250 ug/ml after 48 hr by cup-plate method; settings: MTCC 2421, 48 h, read-out: DIZ
[24] = system: Pseudomonas aeruginosa; test: Antibacterial activity against Pseudomonas aeruginosa MTCC 424 at 750 ug/ml after 48 hr by cup-plate method; settings: MTCC 424, 48 h, read-out: DIZ
[25] = system: Bacillus pumilus; test: Antibacterial activity against Bacillus pumilus MTCC 1456 at 250 ug/ml after 48 hr by cup-plate method; settings: MTCC 1456, 48 h, read-out: DIZ
[26] = system: Micrococcus luteus; test: Antibacterial activity against Micrococcus luteus MTCC 1538 at 250 ug/ml after 48 hr by cup-plate method; settings: MTCC 1538, 48 h, read-out: DIZ
[27] = system: Micrococcus luteus; test: Antibacterial activity against Micrococcus luteus MTCC 1538 at 500 ug/ml after 48 hr by cup-plate method; settings: MTCC 1538, 48 h, read-out: DIZ
[28] = system: Escherichia coli; test: Antibacterial activity against Escherichia coli MTCC 1573 at 1250 ug/ml after 48 hr by cup-plate method; settings: MTCC 1573, 48 h, read-out: DIZ
[29] = system: Penicillium chrysogenum; test: Antifungal activity against Penicillium chrysogenum MTCC 161 at 1250 ug/ml after 48 hr by cup-plate method; settings: MTCC 161, 48 h, read-out: DIZ
[30] = system: Pseudomonas fluorescens; test: Antibacterial activity against Pseudomonas fluorescens MTCC 2421 at 1000 ug/ml after 48 hr by cup-plate method; settings: MTCC 2421, 48 h, read-out: DIZ
[31] = system: Staphylococcus aureus; test: Antibacterial activity against Staphylococcus aureus MTCC 1430 at 1000 ug/ml after 48 hr by cup-plate method; settings: MTCC 1430, 48 h, read-out: DIZ
[32] = system: Pseudomonas fluorescens; test: Antibacterial activity against Pseudomonas fluorescens MTCC 2421 at 750 ug/ml after 48 hr by cup-plate method; settings: MTCC 2421, 48 h, read-out: DIZ
[33] = system: Pseudomonas aeruginosa; test: Antibacterial activity against Pseudomonas aeruginosa MTCC 424 at 500 ug/ml after 48 hr by cup-plate method; settings: MTCC 424, 48 h, read-out: DIZ
[34] = system: Staphylococcus aureus; test: Antibacterial activity against Staphylococcus aureus MTCC 1430 at 750 ug/ml after 48 hr by cup-plate method; settings: MTCC 1430, 48 h, read-out: DIZ
[35] = system: Bacillus pumilus; test: Antibacterial activity against Bacillus pumilus MTCC 1456 at 1000 ug/ml after 48 hr by cup-plate method; settings: MTCC 1456, 48 h, read-out: DIZ
[36] = system: Bacillus subtilis; test: Antibacterial activity against Bacillus subtilis MTCC 441 at 100 ug/ml after 48 hr by cup-plate method; settings: MTCC 441, 48 h, read-out: DIZ
[37] = system: Micrococcus luteus; test: Antibacterial activity against Micrococcus luteus MTCC 1538 after 24 to 48 hr by tube dilution method
[38] = system: Staphylococcus aureus; test: Antibacterial activity against Staphylococcus aureus MTCC 1430 at 500 ug/ml after 48 hr by cup-plate method; settings: MTCC 1430, 48 h, read-out: DIZ
[39] = system: Bacillus pumilus; test: Antibacterial activity against Bacillus pumilus MTCC 1456 at 750 ug/ml after 48 hr by cup-plate method; settings: MTCC 1456, 48 h, read-out: DIZ
[40] = system: Bacillus subtilis; test: Antibacterial activity against Bacillus subtilis MTCC 441 at 1250 ug/ml after 48 hr by cup-plate method; settings: MTCC 441, 48 h, read-out: DIZ
[41] = system: Penicillium chrysogenum; test: Antifungal activity against Penicillium chrysogenum MTCC 161 at 500 ug/ml after 48 hr by cup-plate method; settings: MTCC 161, 48 h, read-out: DIZ
[42] = system: Bacillus subtilis; test: Antibacterial activity against Bacillus subtilis MTCC 441 after 24 to 48 hr by tube dilution method
[43] = system: Penicillium chrysogenum; test: Antifungal activity against Penicillium chrysogenum MTCC 161 at 250 ug/ml after 48 hr by cup-plate method; settings: MTCC 161, 48 h, read-out: DIZ
[44] = system: Aspergillus niger; test: Antifungal activity against Aspergillus niger MTCC 2546 after 24 to 48 hr by tube dilution method
[45] = system: Penicillium chrysogenum; test: Antifungal activity against Penicillium chrysogenum MTCC 161 at 1000 ug/ml after 48 hr by cup-plate method; settings: MTCC 161, 48 h, read-out: DIZ

O=[N+]([O-])c1ccc(C2CC(c3cccc4ccccc34)=NN2c2ccccc2[N+](=O)[O-])cc1 (stereo not given)
zone of inhibition at 1000 µg/mL [1]: 17 mm
zone of inhibition at 100 µg/mL [2]: 10 mm
zone of inhibition at 250 µg/mL [3]: 14 mm
zone of inhibition at 1250 µg/mL [4]: 18 mm
MIC [5]: 30 µg/mL (≈ 68.4 µM)
zone of inhibition at 100 µg/mL [6]: 10 mm
zone of inhibition at 750 µg/mL [7]: 15 mm
zone of inhibition at 100 µg/mL [8]: 9 mm
zone of inhibition at 100 µg/mL [9]: 13 mm
zone of inhibition at 1000 µg/mL [10]: 15 mm
zone of inhibition at 500 µg/mL [11]: 12 mm
zone of inhibition at 500 µg/mL [12]: 11 mm
zone of inhibition at 250 µg/mL [13]: 11 mm
MIC [14]: 50 µg/mL (≈ 114 µM)
MIC [15]: 30 µg/mL (≈ 68.4 µM)
MIC [16]: 30 µg/mL (≈ 68.4 µM)
zone of inhibition at 500 µg/mL [17]: 14 mm
zone of inhibition at 500 µg/mL [18]: 13 mm
zone of inhibition at 500 µg/mL [19]: 12 mm
zone of inhibition at 1000 µg/mL [20]: 23 mm
zone of inhibition at 1250 µg/mL [21]: 17 mm
zone of inhibition at 1250 µg/mL [22]: 15 mm
zone of inhibition at 250 µg/mL [23]: 11 mm
zone of inhibition at 750 µg/mL [24]: 16 mm
zone of inhibition at 250 µg/mL [25]: 11 mm
zone of inhibition at 250 µg/mL [26]: 8 mm
zone of inhibition at 500 µg/mL [27]: 9 mm
zone of inhibition at 1250 µg/mL [28]: 20 mm
zone of inhibition at 1250 µg/mL [29]: 26 mm
zone of inhibition at 1000 µg/mL [30]: 21 mm
zone of inhibition at 1000 µg/mL [31]: 13 mm
zone of inhibition at 750 µg/mL [32]: 18 mm
zone of inhibition at 500 µg/mL [33]: 15 mm
zone of inhibition at 750 µg/mL [34]: 12 mm
zone of inhibition at 1000 µg/mL [35]: 23 mm
zone of inhibition at 100 µg/mL [36]: 12 mm
MIC [37]: 30 µg/mL (≈ 68.4 µM)
zone of inhibition at 500 µg/mL [38]: 10 mm
zone of inhibition at 750 µg/mL [39]: 18 mm
zone of inhibition at 1250 µg/mL [40]: 17 mm
zone of inhibition at 500 µg/mL [41]: 15 mm
MIC [42]: 19 µg/mL (≈ 43.3 µM)
zone of inhibition at 250 µg/mL [43]: 14 mm
MIC [44]: 30 µg/mL (≈ 68.4 µM)
zone of inhibition at 1000 µg/mL [45]: 24 mm
